ChEMBL document CHEMBL3603836, “Hybrid pyrimidine alkynyls inhibit the clinically resistance related Bcr-Abl(T315I) mutant” (Bioorg Med Chem Lett, 2015)
pIC50: −log10 of the molar value. The source made the active and inactive calls. No cut-off for these calls is given here.

What was measured:
Rattus norvegicus [1] = test: AUC (0 to infinity) in Sprague-Dawley rat at 10 mg/kg, iv; type: ADME, organism-based; set-up: dose 10 mg/kg, time infinity, route intravenous; settings: in vivo
[2] = Cell cycle arrest in mouse BA/F3 cells expressing Bcr-Abl T315I mutant assessed as accumulation at G0/G1 phase at 500 nM after 24 hrs using propidium iodide staining by flow cytometry (reference value: 51.92%); type: functional, cell-based; settings: BaF3
BaF3 [3] = test: Induction of apoptosis in mouse BA/F3 cells expressing Bcr-Abl T315I mutant assessed as early apoptotic cells at 4 nM after 24 hrs using annexin-V/7-AAD staining by FACS analysis (reference value: 4.6%); type: functional
K562 [4] = test: Induction of apoptosis in human K562 cells expressing wild type Bcr-Abl assessed as early apoptotic cells at 100 nM after 24 hrs using annexin-V/7-AAD staining by FACS analysis (reference value: 7.3%); type: functional
BaF3 [5] = test: Induction of apoptosis in mouse BA/F3 cells expressing Bcr-Abl T315I mutant assessed as early apoptotic cells after 24 hrs using annexin-V/7-AAD staining by FACS analysis; type: functional, cell-based
cells = settings: Mus musculus, BaF3, 72 h
BaF3 [6] = test: Induction of apoptosis in mouse BA/F3 cells expressing Bcr-Abl T315I mutant assessed as late apoptotic cells at 100 nM after 24 hrs using annexin-V/7-AAD staining by FACS analysis (reference value: 2.2%); type: functional
BaF3 [7] = test: Antitumor activity against mouse BA/F3 cells expressing Bcr-Abl T315I mutant allografted in mouse assessed as tumor growth inhibition at 10 mg/kg, qd for 16 days; type: functional, organism-based
K562 [8] = test: cells; settings: Homo sapiens, K562, 72 h
Description: Antiproliferative activity against human K562 cells expressing wild type Bcr-Abl after 72 hrs by CCK-8 assay

K562 [9] = test: Antitumor activity against human K562 cells expressing wild type Bcr-Abl xenografted in mouse assessed as sign of tumor recurrence at 10 mg/kg, po qd for 16 days measured after 7 days of last dose; type: functional, organism-based
[10] = Cell cycle arrest in mouse BA/F3 cells expressing Bcr-Abl T315I mutant assessed as accumulation at G0/G1 phase after 24 hrs using propidium iodide staining by flow cytometry; type: functional, cell-based; settings: BaF3
K562 [11] = test: Cell cycle arrest in human K562 cells expressing wild type Bcr-Abl assessed as accumulation at G0/G1 phase at 20 nM after 24 hrs using propidium iodide staining by flow cytometry (reference value: 64.03%); type: functional
K562 [12] = test: Induction of apoptosis in human K562 cells expressing wild type Bcr-Abl assessed as late apoptotic cells at 4 nM after 24 hrs using annexin-V/7-AAD staining by FACS analysis (reference value: 2.1%); type: functional
BaF3 [13] = test: Induction of apoptosis in mouse BA/F3 cells expressing Bcr-Abl T315I mutant assessed as late apoptotic cells at 500 nM after 24 hrs using annexin-V/7-AAD staining by FACS analysis (reference value: 2.2%); type: functional
K562 [14] = test: Antitumor activity against human K562 cells expressing wild type Bcr-Abl xenografted in mouse assessed as complete eradication of tumor at 10 mg/kg, po qd for 8 days; type: functional, organism-based
[15] = system: Tyrosine-protein kinase ABL1 (Mus musculus), P00520 [T315I]; test: Inhibition of Bcr-Abl T315I mutant in mouse BA/F3 cells assessed as total protein level of Bcr-Abl at 4 to 500 nM after 4 hrs by Western blot analysis; type: cell-based; settings: BaF3
Chain of Tyrosine-protein kinase ABL1 (Mus musculus), P00520 [T315I] (P00520 whole entry T315I): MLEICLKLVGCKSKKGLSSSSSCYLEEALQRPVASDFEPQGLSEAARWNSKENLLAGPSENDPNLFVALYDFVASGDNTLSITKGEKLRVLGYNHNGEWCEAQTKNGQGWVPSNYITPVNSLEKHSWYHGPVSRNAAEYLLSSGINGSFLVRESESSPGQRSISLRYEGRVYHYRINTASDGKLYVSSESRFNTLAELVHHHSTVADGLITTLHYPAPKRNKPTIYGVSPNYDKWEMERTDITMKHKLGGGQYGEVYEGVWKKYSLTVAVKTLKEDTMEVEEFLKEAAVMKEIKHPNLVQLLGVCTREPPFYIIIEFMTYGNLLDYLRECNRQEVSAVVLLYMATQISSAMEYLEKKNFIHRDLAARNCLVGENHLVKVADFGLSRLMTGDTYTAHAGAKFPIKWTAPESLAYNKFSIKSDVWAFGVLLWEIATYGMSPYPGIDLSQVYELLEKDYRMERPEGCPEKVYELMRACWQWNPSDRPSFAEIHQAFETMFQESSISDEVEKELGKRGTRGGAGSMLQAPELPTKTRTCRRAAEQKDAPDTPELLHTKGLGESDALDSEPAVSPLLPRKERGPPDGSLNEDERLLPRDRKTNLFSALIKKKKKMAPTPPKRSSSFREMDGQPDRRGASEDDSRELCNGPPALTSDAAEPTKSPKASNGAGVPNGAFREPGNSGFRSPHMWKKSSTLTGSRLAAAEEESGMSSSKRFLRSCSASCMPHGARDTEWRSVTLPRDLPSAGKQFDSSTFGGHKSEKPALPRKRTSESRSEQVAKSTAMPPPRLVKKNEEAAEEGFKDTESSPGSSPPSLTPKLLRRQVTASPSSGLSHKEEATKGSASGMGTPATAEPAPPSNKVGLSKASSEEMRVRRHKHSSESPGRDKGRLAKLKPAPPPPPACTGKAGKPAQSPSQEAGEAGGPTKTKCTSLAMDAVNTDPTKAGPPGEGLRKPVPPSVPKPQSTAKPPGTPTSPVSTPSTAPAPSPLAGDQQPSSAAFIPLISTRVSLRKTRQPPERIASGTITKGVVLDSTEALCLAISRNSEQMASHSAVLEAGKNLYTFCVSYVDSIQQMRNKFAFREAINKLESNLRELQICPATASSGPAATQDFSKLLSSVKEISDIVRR

Mus musculus = test: Toxicity in human K562 cells expressing wild type Bcr-Abl xenografted mouse assessed as change in body weight at 3.3 to 10 mg/kg, po qd for 16 days relative to control; type: organism-based; settings: in vivo, 384 h
K562 [16] = test: Induction of apoptosis in human K562 cells expressing wild type Bcr-Abl assessed as early apoptotic cells after 24 hrs using annexin-V/7-AAD staining by FACS analysis; type: functional, cell-based
[17] = system: Tyrosine-protein kinase ABL1 (Mus musculus), P00520 [T315I]; test: Inhibition of Bcr-Abl T315I mutant in mouse BA/F3 cells assessed as total protein level of STAT5 at 4 to 500 nM after 4 hrs by Western blot analysis; type: cell-based; settings: BaF3
BaF3 [18] = test: Induction of apoptosis in mouse BA/F3 cells expressing Bcr-Abl T315I mutant assessed as early apoptotic cells at 500 nM after 24 hrs using annexin-V/7-AAD staining by FACS analysis (reference value: 4.6%); type: functional
[19] = Cell cycle arrest in mouse BA/F3 cells expressing Bcr-Abl T315I mutant assessed as accumulation at G0/G1 phase at 100 nM after 24 hrs using propidium iodide staining by flow cytometry (reference value: 51.92%); type: functional, cell-based; settings: BaF3
[20] = Antiproliferative activity against mouse BA/F3 cells expressing wild type Bcr-Abl after 72 hrs by CCK-8 assay; type: functional, cell-based; settings: BaF3, 72 h
K562 [21] = test: Cell cycle arrest in human K562 cells expressing wild type Bcr-Abl assessed as accumulation at G0/G1 phase after 24 hrs using propidium iodide staining by flow cytometry; type: functional, cell-based
BaF3 [22] = test: Induction of apoptosis in mouse BA/F3 cells expressing Bcr-Abl T315I mutant assessed as late apoptotic cells after 24 hrs using annexin-V/7-AAD staining by FACS analysis; type: functional, cell-based
[23] = system: Tyrosine-protein kinase ABL1 (Mus musculus), P00520 [T315I]; test: Inhibition of Bcr-Abl T315I mutant in mouse BA/F3 cells assessed as reduction of STAT5 phosphorylation at 4 to 500 nM after 4 hrs by Western blot analysis; type: cell-based; settings: BaF3
BaF3 [24] = test: Induction of apoptosis in mouse BA/F3 cells expressing Bcr-Abl T315I mutant assessed as early apoptotic cells at 100 nM after 24 hrs using annexin-V/7-AAD staining by FACS analysis (reference value: 4.6%); type: functional
[25] = Cell cycle arrest in mouse BA/F3 cells expressing Bcr-Abl T315I mutant assessed as accumulation at G0/G1 phase at 20 nM after 24 hrs using propidium iodide staining by flow cytometry (reference value: 51.92%); type: functional, cell-based; settings: BaF3
[26] = Cell cycle arrest in mouse BA/F3 cells expressing Bcr-Abl T315I mutant assessed as accumulation at G0/G1 phase at 4 nM after 24 hrs using propidium iodide staining by flow cytometry (reference value: 51.92%); type: functional, cell-based; settings: BaF3
K562 [27] = test: Induction of apoptosis in human K562 cells expressing wild type Bcr-Abl assessed as early apoptotic cells at 4 nM after 24 hrs using annexin-V/7-AAD staining by FACS analysis (reference value: 7.3%); type: functional
K562 [28] = test: Induction of apoptosis in human K562 cells expressing wild type Bcr-Abl assessed as late apoptotic cells at 0.8 nM after 24 hrs using annexin-V/7-AAD staining by FACS analysis (reference value: 2.1%); type: functional
Rattus norvegicus [29] = test: AUC (0 to infinity) in Sprague-Dawley rat at 25 mg/kg, po; type: ADME, organism-based; set-up: dose 25 mg/kg, time infinity, route oral; settings: in vivo
K562 [30] = test: Induction of apoptosis in human K562 cells expressing wild type Bcr-Abl assessed as late apoptotic cells after 24 hrs using annexin-V/7-AAD staining by FACS analysis; type: functional, cell-based
BaF3 [31] = test: Antitumor activity against mouse BA/F3 cells expressing Bcr-Abl T315I mutant allografted in mouse assessed as tumor regression at 30 mg/kg, qd for 16 days; type: functional, organism-based

Cc1cn(-c2cc(NC(=O)c3ccc(C)c(C#Cc4cnc(NC5CC5)nc4)c3)cc(C(F)(F)F)c2)cn1
AUC (Rattus norvegicus [1]): 285187 µg/L/h
Activity [2]: 70.2%
Activity (BaF3 [3]): 5.8%
Activity (K562 [4]): 73.6%
Activity (BaF3 [5]): Dose-dependent effect
pIC50 (cells): 7.30
Activity (BaF3 [6]): 4%
Activity (BaF3 [7]): inactive
pIC50 (K562 [8]): 8.70
Activity (K562 [9]): inactive
Activity [10]: Dose-dependent effect
Activity (K562 [11]): 87.03%
Activity (K562 [12]): 2%
Activity (BaF3 [13]): 4.3%
Activity (K562 [14]): Active
inhibition [15]: inactive
Activity (Mus musculus): < 5%
Activity (K562 [16]): Dose-dependent effect
inhibition [17]: inactive
Activity (BaF3 [18]): 10.2%
Activity [19]: 67.2%
pIC50 [20]: 8.70
Activity (K562 [21]): Dose-dependent effect
Activity (BaF3 [22]): Dose-dependent effect
inhibition [23]: Active
Activity (BaF3 [24]): 7.1%
Activity [25]: 58.9%
Activity [26]: 52.4%
Activity (K562 [27]): 6.7%
Activity (K562 [28]): 1.7%
AUC (Rattus norvegicus [29]): 251684 µg/L/h
Activity (K562 [30]): Dose-dependent effect
Activity (BaF3 [31]): Active
